The results in this text go back to patent US5059615A, “Antimycotically active cyclopropyl-substituted azolylmethylcarbinols” (Bayer Aktiengesellschaft, priority 1988, dated 1991).

One assay concerns Torulopsis glabrata. Briefly: Antimycotic in vitro activity, serial dilution test (MIC). Format: cell-based. The settings on record: Nakaseomyces glabratus, meat extract-dextrose broth, 28-37° C., 24 to 96 hours, read-out: MIC values in μg/ml of nutrient medium. The method, then:
(§1) The in vitro tests were carried out in a serial dilution test using inocula of microorganisms of on average 5×10^4 to 10^5 microorganisms/ml of substrate. The nutrient medium used was b) for yeasts meat extract-dextrose broth. The incubation temperature was 28° C. to 37° C., and the incubation time was 24 to 96 hours with yeasts and 96 hours with dermatophytes and Hyphomycetes.

The next assay deals with Candida albicans. The assay is described as above. In kind it is cell-based. Conditions: for MIC: Candida albicans, meat extract-dextrose broth, 28-37° C., 24 to 96 hours, read-out: MIC values in μg/ml of nutrient medium; for activity compared with the known compounds (A) and (B): serial dilution test, in particular against Candida albicans. The method, then:
as §1

The subject of assay [1] is Trichophyton mentagrophytes. The assay is described as above. Format: cell-based. Conditions: Trichophyton mentagr., Sabouraud's test medium, 28-37° C., 96 hours, read-out: MIC values in μg/ml of nutrient medium. The method, then: (§2) The in vitro tests were carried out in a serial dilution test using inocula of microorganisms of on average 5×10^4 to 10^5 microorganisms/ml of substrate. The nutrient medium used was a) for dermatophytes and Hyphomycetes Sabouraud's test medium The incubation temperature was 28° C. to 37° C., and the incubation time was 24 to 96 hours with yeasts and 96 hours with dermatophytes and Hyphomycetes.

The next assay concerns Aspergillus fumigatus. The description is as above. Format: cell-based. Conditions: Sabouraud's test medium, 28-37° C., 96 hours, read-out: MIC values in μg/ml of nutrient medium. The method, then: as §2
Assay [2] concerns Trichophyton mentagrophytes. The assay can be described thus: Antimycotic in vivo activity (local) in the experimental guinea-pig trichophytosis model. On the set-up: species or system guinea-pigs of the Pirbright white strain. The settings on record: 2.5% strength solution. As for the experimental part: White guinea-pigs of the Pirbright white strain were infected on the shaven, non-scarified back using a microconidia and macroconidia suspension of Trichophyton mentagrophytes. The infected animals were treated locally from. The 3rd day 1x daily p.i. using a 2.5% strength solution of the preparation according to the invention (in dimethyl sulphoxide:glycerol=1:4). In untreated animals, the typical picture of dermatophytosis with reddening, scaling and hair loss up to total integumental defect of the infection site developed in the course of 12 days p.i.

For a further assay, the system named is Candida cells. The assay can be described thus: Antimycotic in vivo activity (oral) in mouse candidosis. On the set-up: species or system Mice of the SPF-CF type. Conditions: for Action / surviving on the 6th day p.i.: 10-100 mg/kg one hour before and seven hours after infection; for Action: survival on the 6th day p.i.; for surviving on the 6th day p.i.: untreated about 5%; for action (in words) / action compared with the known compounds (C) and (D): mouse candidosis. The method, then: Mice of the SPF-CF type were infected intravenously with 1-2×10^6exponentially growing Candida cells which were suspended in physiological saline solution. One hour before and seven hours after the infection, the animals were treated orally in each case with 10-100 mg/kg of body weight of the preparation. Untreated animals died 3 to 6 days post infection. The survival rate on the 6th day post infection in untreated control animals was about 5%.

A further assay deals with Microsporum canis. The assay can be described thus: Antimycotic in vitro activity, serial dilution test (MIC). In kind it is cell-based. Conditions: Sabouraud's test medium, 28-37° C., 96 hours, read-out: MIC values in μg/ml of nutrient medium. The method, then: as §2

Converted amounts (≈) assume the structure as drawn.

`OC(Cn1cncn1)(Cn1cncn1)c1cccc(Cl)c1` [A, reference compound]: the MIC in the assay with Torulopsis glabrata is greater than 64 µg/mL; in the assay with Candida albicans it was greater than 64 µg/mL; in assay [1], 32 µg/mL (≈ 105 µM); in the assay on Aspergillus fumigatus it was greater than 64 µg/mL.
With `OC(Cn1cncn1)(Cn1cncn1)c1ccccc1` [B, reference compound], the MIC in the assay on Torulopsis glabrata is greater than 64 µg/mL; in the assay with Candida albicans, 64 µg/mL (≈ 237 µM); in assay [1], 64 µg/mL (≈ 237 µM); in the assay with Aspergillus fumigatus, greater than 64 µg/mL.
Take `N#CC1(C(O)(Cn2cncn2)c2ccc(F)cc2)CC1` (centres unmarked) [I-2, 1-(1-Cyanocyclopropyl)-1-(4-fluorophenyl)-2-(1,2,4-triazol-1-yl)ethanol]: in assay [2], the “action (in words)” value is given as “good action”. Also, in the assay on Candida cells, the Action entry was “+++++ (very good action = 90% surviving on the 6th day p.i.)”; the “surviving on the 6th day p.i.” value is reported as greater than 80%; the “action (in words)” value is recorded as “good to very good action”; the “action compared with the known compounds (C) and (D)” value is “better than the compounds (C) and (D)”.
Regarding `N#CC1(C(O)(Cn2cncn2)c2ccc(Cl)cc2)CC1` (centres unmarked) [I-3, 1-(1-Cyanocyclopropyl)-1-(4-chlorophenyl)-2-(1,2,4-triazol-1-yl)ethanol], the MIC turned out to be 8 µg/mL (≈ 27.7 µM) with Torulopsis glabrata; 2 µg/mL (≈ 6.93 µM) in the assay with Candida albicans; 4 µg/mL (≈ 13.9 µM) in the assay with Microsporum canis; 2 µg/mL (≈ 6.93 µM) in assay [1]; 4 µg/mL (≈ 13.9 µM) in the assay on Aspergillus fumigatus. The “activity compared with the known compounds (A) and (B)” value in the assay with Candida albicans is given as “better activity”. In addition, the “action (in words)” value is on record as “good action” in assay [2] and “good to very good action” with Candida cells. For the same molecule, the Action entry in the assay on Candida cells is reported as “+++++ (very good action = 90% surviving on the 6th day p.i.)”. Also, the “surviving on the 6th day p.i.” value in the assay with Candida cells is reported as greater than 80%. Besides, the “action compared with the known compounds (C) and (D)” value in the assay on Candida cells was “better than the compounds (C) and (D)”.
`N#CC1(C(O)(Cn2cncn2)c2ccc(F)cc2F)CC1` (centres unmarked) [I-4, 1-(1-Cyanocyclopropyl)-1-(2,4-difluorophenyl)-2-(1,2,4-triazol-1-yl)ethanol]: in the assay with Candida cells, the Action result is “+++++ (very good action = 90% surviving on the 6th day p.i.)”; the “surviving on the 6th day p.i.” value is greater than 80%; the “action (in words)” value is “good to very good action”; the “action compared with the known compounds (C) and (D)” value was “better than the compounds (C) and (D)”.
In the case of `N#CC1(C(O)(Cn2ccnc2)c2ccc(F)cc2)CC1` (centres unmarked) [I-5, 1-(1-cyanocyclopropyl)-1-(4-fluorophenyl)-2-(imidazol-1-yl)ethanol], the MIC in the assay on Torulopsis glabrata was 8 µg/mL (≈ 29.5 µM); in the assay with Candida albicans, 8 µg/mL (≈ 29.5 µM); in the assay on Microsporum canis it was 4 µg/mL (≈ 14.7 µM); in assay [1], less than 1 µg/mL; in the assay with Aspergillus fumigatus, 4 µg/mL (≈ 14.7 µM). Further, the “activity compared with the known compounds (A) and (B)” value in the assay on Candida albicans was “better activity”.
With `NC(=O)C1(C(O)(Cn2cncn2)c2ccc(F)cc2)CC1` (centres unmarked) [I-7, 1-(1-Carboxamidocyclopropyl)-1-(4-fluorophenyl)-2-(1,2,4-triazol-1-yl)ethanol], in the assay on Candida cells, the Action entry was “+++++ (very good action = 90% surviving on the 6th day p.i.)”; the “surviving on the 6th day p.i.” value is on record as greater than 80%; the “action (in words)” value is “good to very good action”; the “action compared with the known compounds (C) and (D)” value is “better than the compounds (C) and (D)”.
In the case of `N#CC1(C(O)(Cn2cncn2)c2ccc(OC(F)(F)F)cc2)CC1` (centres unmarked) [I-9], in the assay with Candida cells, the Action result is on record as “+++++ (very good action = 90% surviving on the 6th day p.i.)”; the “surviving on the 6th day p.i.” value is given as greater than 80%; the “action (in words)” value was “good to very good action”; the “action compared with the known compounds (C) and (D)” value was “better than the compounds (C) and (D)”.
On to `N#CC1(C(O)(Cn2cncn2)c2ccc(C(F)(F)F)cc2Cl)CC1` (centres unmarked) [I-11], for which, in the assay on Candida cells, the Action entry is “+++++ (very good action = 90% surviving on the 6th day p.i.)”; the “surviving on the 6th day p.i.” value is recorded as greater than 80%; the “action (in words)” value was “good to very good action”; the “action compared with the known compounds (C) and (D)” value is “better than the compounds (C) and (D)”.
For the molecule `N#CC1(C(O)(Cn2cncn2)c2ccccc2Cl)CC1` (centres unmarked) [I-13], in the assay on Candida cells, the Action result is given as “++++ (good action = 80% surviving on the 6th day p.i.)”; the “surviving on the 6th day p.i.” value was greater than 80%; the “action (in words)” value is recorded as “good to very good action”; the “action compared with the known compounds (C) and (D)” value is “better than the compounds (C) and (D)”.
Turning to `N#CC1(C(O)(Cn2cncn2)c2ccc(Cl)cc2F)CC1` (centres unmarked) [I-14], in the assay with Torulopsis glabrata, the MIC is 16 µg/mL (≈ 52.2 µM). In the assay on Candida albicans, the MIC was 2 µg/mL (≈ 6.52 µM); the “activity compared with the known compounds (A) and (B)” value is recorded as “better activity”. Also, in the assay on Microsporum canis, the MIC is 4 µg/mL (≈ 13 µM). Moreover, the MIC in assay [1] is less than 1 µg/mL. The MIC with Aspergillus fumigatus turned out to be 4 µg/mL (≈ 13 µM). Also, in the assay on Candida cells, the Action entry was “+++++ (very good action = 90% surviving on the 6th day p.i.)”; the “surviving on the 6th day p.i.” value is greater than 80%; the “action (in words)” value was “good to very good action”; the “action compared with the known compounds (C) and (D)” value was “better than the compounds (C) and (D)”.
Take `N#CC1(C(O)(Cn2cncn2)c2c(F)cccc2F)CC1` (centres unmarked) [I-15]: in the assay on Candida cells, the Action entry is “+++++ (very good action = 90% surviving on the 6th day p.i.)”; the “surviving on the 6th day p.i.” value is reported as greater than 80%; the “action (in words)” value is “good to very good action”; the “action compared with the known compounds (C) and (D)” value was “better than the compounds (C) and (D)”.
In the case of `N#CC1(C(O)(Cn2cncn2)c2ccc(Cl)cc2Cl)CC1` (centres unmarked) [I-16], the MIC with Torulopsis glabrata was 32 µg/mL (≈ 99 µM); in the assay with Candida albicans, 16 µg/mL (≈ 49.5 µM); with Microsporum canis, less than 1 µg/mL; in assay [1], less than 1 µg/mL; in the assay on Aspergillus fumigatus it was 2 µg/mL (≈ 6.19 µM). Besides, the “activity compared with the known compounds (A) and (B)” value with Candida albicans is “better activity”. In addition, the Action entry in the assay on Candida cells was “+++++ (very good action = 90% surviving on the 6th day p.i.)”. The “surviving on the 6th day p.i.” value in the assay on Candida cells is reported as greater than 80%. In addition, the “action (in words)” value with Candida cells is recorded as “good to very good action”. Also, the “action compared with the known compounds (C) and (D)” value in the assay on Candida cells was “better than the compounds (C) and (D)”.
